ChEMBL document CHEMBL3414446, “Neoechinulin B and its analogues as potential entry inhibitors of influenza viruses, targeting viral hemagglutinin” (Eur J Med Chem, 2015)
Calls of active or inactive are those of the source. The rule behind the calls is not given here.

Key:
[1] = Cytotoxicity against MDCK cells assessed as cell growth after 40 hrs by CellTiter-Glo assay; type: cell-based, Canis lupus familiaris; settings: dog
[2] = Antiviral activity against influenza A virus A/WSN/33 (H1N1) infected in MDCK cells assessed as reduction in cytopathic effect at 100 uM after 48 hrs by plaque assay; type: functional, Influenza A virus (A/WSN/1933(H1N1))
[3] = Antiviral activity against influenza A virus A/WSN/33 (H1N1) infected in MDCK cells assessed as reduction in cytopathic effect after 48 hrs by plaque assay; type: functional, cell-based, Influenza A virus (A/WSN/1933(H1N1))
[4] = target: Hemagglutinin (Influenza A virus) (UniProt B4URE7); assay: Inhibition of influenza A virus A/WSN/33 (H1N1) Hemagglutinin 1 binding to sialic acid receptor assessed as response unit at 0.625 ug/ml by surface plasmon resonance assay; settings: Influenza A virus (A/WSN/1933(H1N1))
[5] = system: Influenza A virus (A/WSN/1933(H1N1)); assay: Inhibition of influenza A virus A/WSN/33 (H1N1) Hemagglutinin 1 binding to sialic acid receptor assessed as response unit at 20 ug/ml by surface plasmon resonance assay
[6] = system: Influenza A virus (A/WSN/1933(H1N1)); assay: Inhibition of influenza A virus A/WSN/33 (H1N1) Hemagglutinin 1 binding to sialic acid receptor assessed as response unit at 10 ug/ml by surface plasmon resonance assay
[7] = Binding affinity to influenza A virus A/WSN/33 (H1N1) Hemagglutinin 1 binding to sialic acid receptor by surface plasmon resonance assay; parameters: species or system Influenza A virus (A/WSN/1933(H1N1))
[8] = target: Hemagglutinin (Influenza A virus) (UniProt B4URE7); assay: Inhibition of influenza A virus A/WSN/33 (H1N1) Hemagglutinin 1 binding to sialic acid receptor assessed as response unit at 2.5 ug/ml by surface plasmon resonance assay; settings: Influenza A virus (A/WSN/1933(H1N1))
[9] = target: Hemagglutinin (Influenza A virus) (UniProt B4URE7); assay: Inhibition of influenza A virus A/WSN/33 (H1N1) Hemagglutinin 1 binding to sialic acid receptor assessed as response unit at 5 ug/ml by surface plasmon resonance assay; settings: Influenza A virus (A/WSN/1933(H1N1))
[10] = target: Hemagglutinin (Influenza A virus) (UniProt B4URE7); assay: Inhibition of influenza A virus A/WSN/33 (H1N1) Hemagglutinin 1 binding to sialic acid receptor assessed as response unit at 1.25 ug/ml by surface plasmon resonance assay; settings: Influenza A virus (A/WSN/1933(H1N1))
Hemagglutinin = Hemagglutinin (Influenza A virus, UniProt B4URE7); assay: Binding affinity to influenza A virus A/WSN/33 (H1N1) Hemagglutinin by surface Plasmon resonance assay; parameters: species or system Influenza A virus (A/WSN/1933(H1N1))
MDCK [11] = assay: Antiviral activity against influenza A virus A/WSN/33 (H1N1) infected in MDCK cells assessed as inhibition of plaque formation for 1 hr at 4 degC; type: functional, cell-based; settings: Influenza A virus (A/WSN/1933(H1N1))
[12] = system: Influenza A virus (A/WSN/1933(H1N1)); assay: Inhibition of influenza A virus A/WSN/33 (H1N1) […] binding to sialic acid receptor by surface Plasmon resonance assay
[13] = target: Hemagglutinin (Influenza A virus) (UniProt B4URE7); assay: Inhibition of influenza A virus A/WSN/33 (H1N1) Hemagglutinin transfected in Human HeLa cells assessed as polykaryon formation at 100 uM after 15 mins by microscopy; type: cell-based; settings: Influenza A virus (A/WSN/1933(H1N1))
MDCK [14] = assay: Antiviral activity against influenza A virus A/WSN/33 (H1N1) infected in MDCK cells assessed as nucleoprotein level in infected cells at 2 to 8 hrs viral genome replication and translation step at 100 uM by Time-of-addition experiment; type: functional, cell-based; settings: Influenza A virus (A/WSN/1933(H1N1))
MDCK [15] = assay: (§1) Antiviral activity against influenza A virus A/WSN/33 (H1N1) infected in MDCK cells assessed as inhibition of plaque formation after 3 days at 37 degC; type: functional, cell-based; settings: Influenza A virus (A/WSN/1933(H1N1))
[16] = system: Influenza A virus (A/WSN/1933(H1N1)); assay: Inhibition of influenza A virus A/WSN/33 (H1N1)-induced aggregation of chicken erythrocytes after 30 mins by Hemagglutination inhibition assay; type: functional
MDCK [17] = assay: Antiviral activity against influenza A virus A/WSN/33 (H1N1) infected in MDCK cells assessed as nucleoprotein level in infected cells at […] progeny virion release step at 100 uM by Time-of-addition experiment; type: functional, cell-based; settings: Influenza A virus (A/WSN/1933(H1N1))
MDCK [18] = assay: Antiviral activity against influenza A virus A/WSN/33 (H1N1) infected in MDCK cells assessed as nucleoprotein level in infected cells at 0 to 2 hrs virus entry step at 100 uM by Time-of-addition experiment; type: functional, cell-based; settings: Influenza A virus (A/WSN/1933(H1N1))
[19] = as §1; type: functional, cell-based, Influenza A virus (A/WSN/1933(H1N1)); settings: 72 h

| SMILES | CC50 at 40 h [1] | inhibition at 100 µM [2] | other results |
| --- | --- | --- | --- |
| C[C@@H]1NC(=O)[C@H](Cc2c[nH]c3ccccc23)NC1=O | > 200 µM | 2.31% | – |
| C=CC(C)(C)c1[nH]c2ccc(C[C@H](O)C(C)(C)OC)cc2c1/C=C1\NC(=O)[C@H](C)NC1=O | > 200 µM | 15.2% | – |
| C=CC(C)(C)c1[nH]c2ccc(C[C@H](OC(C)=O)C(C)(C)O)cc2c1/C=C1\NC(=O)[C@H](C)NC1=O | > 200 µM | 2.5% | – |
| C=CC(C)(C)c1[nH]c2ccc(C[C@H](O)C(C)(C)OC)cc2c1/C=c1\[nH]c(=O)c(=C)[nH]c1=O | > 200 µM | 5% | – |
| C=CC(C)(C)c1[nH]c2ccc(C[C@H](O)C(C)(C)OC)cc2c1C[C@@H]1NC(=O)[C@H](C)NC1=O | > 200 µM | 5.69% | – |
| C=CC(C)(C)c1[nH]c2ccc(C[C@H](OC(C)=O)C(C)(C)O)cc2c1C[C@@H]1NC(=O)[C@H](C)NC1=O | > 200 µM | 3.48% | – |
| C=CC(C)(C)c1[nH]c2c(C[C@H](O)C(C)(C)O)cccc2c1/C=C1\NC(=O)[C@H](C)NC1=O | > 200 µM | 15.1% | – |
| C=CC(C)(C)c1[nH]c2c(C[C@H](O)C(C)(C)OC)cccc2c1/C=C1\NC(=O)[C@H](C)NC1=O | > 200 µM | 15.6% | – |
| C=CC(C)(C)c1[nH]c2ccccc2c1C[C@@H]1NC(=O)[C@H](CO)NC1=O | > 200 µM | 13% | – |
| C=CC(C)(C)c1[nH]c2ccccc2c1/C=C1\NC(=O)[C@@](CO)(OC)NC1=O | > 200 µM | 14.3% | – |
| C=CC(C)(C)c1[nH]c2ccc(C[C@H](O)C(C)(C)O)cc2c1/C=C1\NC(=O)C(=O)NC1=O | > 200 µM | 6.45% | – |
| C=CC(C)(C)c1[nH]c2ccccc2c1C(O)[C@@H]1NC(=O)[C@H](C)NC1=O (stereo not given in full) | > 200 µM | 3.38% | – |
| C=CC(C)(C)c1[nH]c2ccccc2c1C(OC)[C@@H]1NC(=O)[C@H](C)NC1=O (stereo not given in full) | > 200 µM | 18.3% | – |
| C=CC(C)(C)n1cc(C[C@@H]2NC(=O)[C@H](C)NC2=O)c2ccccc21 | > 200 µM | 17.9% | – |
| C=CC(C)(C)c1[nH]c2c(CC=C(C)C)cccc2c1/C=c1\[nH]c(=O)c(=C)[nH]c1=O | > 200 µM | 100% | IC50 [3]: 51.4 µM |
| C=CC(C)(C)c1[nH]c2ccccc2c1/C=C1\NC(=O)[C@@](C)(OC)NC1=O | > 200 µM | 82.4% | IC50 [3]: 68.8 µM |
| C=CC(C)(C)c1[nH]c2ccccc2c1/C=C1\NC(=O)C(=O)NC1=O | > 200 µM | 6.69% | – |
| CC(C)=CCn1cc(C[C@@H]2NC(=O)[C@H](C)NC2=O)c2ccccc21 | > 200 µM | 25.4% | – |
| NC12CC3CC(CC(C3)C1)C2 [AMANTADINE] | > 200 µM | – | – |
| C=CC(C)(C)c1[nH]c2ccccc2c1/C=C1\NC(=O)[C@H](CO)NC1=O [CRISTATUMIN A] | > 200 µM | 20.6% | – |
| COc1cc(/C=C/C(=O)CC(=O)/C=C/c2ccc(O)c(OC)c2)ccc1O [CURCUMIN] | – | – | Activity [4]: 0.8; Activity [5]: 78.8; Activity [6]: 36.4; Kd [7]: 507 µM; Activity [8]: 6.8; Activity [9]: 16.1; Activity [10]: 2.7 |
| C=CC(C)(C)c1[nH]c2c(CC=C(C)C)cc(CC=C(C)C)cc2c1C[C@@H]1NC(=O)[C@H](C)NC1=O [ECHINULIN] | > 200 µM | 13% | – |
| C=CC(C)(C)c1[nH]c2ccc(CC=C(C)C)cc2c1/C=C1\NC(=O)[C@H](C)NC1=O [ISOECHINULIN A] | > 200 µM | 77.6% | IC50 [3]: 42.7 µM |
| C=CC(C)(C)c1[nH]c2ccccc2c1/C=C1\NC(=O)[C@H](C)NC1=O [NEOECHINULIN A] | – | – | Activity [4]: 1; Kd (Hemagglutinin): 98 µM; Activity [8]: 12.3; Activity [9]: 26.5; Activity [10]: 4.5 |
| C=CC(C)(C)c1[nH]c2ccccc2c1/C=c1\[nH]c(=O)c(=C)[nH]c1=O [NEOECHINULIN B] | > 200 µM | 70.5% | inhibition (MDCK [11]): Dose-dependent effect; Activity [12]: Active; Activity [4]: -3.9; Activity [13]: inactive; Activity [5]: 66.9; Activity [6]: 27.7; inhibition (MDCK [14]): inactive; IC50 [3]: 27.4 µM; inhibition (MDCK [15]): Dose-dependent effect; inhibition [16]: Dose-dependent effect; Kd (Hemagglutinin): 32 µM; Kd [7]: 451 µM; Activity [8]: 0.8; Activity [9]: 8.9; Activity [10]: -4; inhibition (MDCK [17]): inactive; Activity (MDCK [18]): Active |
| CCOC(=O)C1=C[C@@H](OC(CC)CC)[C@H](NC(C)=O)[C@@H](N)C1 [OSELTAMIVIR] | > 200 µM | – | IC50 [3]: 46.5 µM; IC50 [19]: 15 µM |
| C=CC(C)(C)c1[nH]c2ccccc2c1C[C@@H]1NC(=O)[C@H](C)NC1=O [PREECHINULIN] | > 200 µM | 14.9% | – |
| NC(=O)c1ncn([C@@H]2O[C@H](CO)[C@@H](O)[C@H]2O)n1 [RIBAVIRIN] | > 200 µM | – | – |
| CCOC(=O)c1c(CSc2ccccc2)n(C)c2cc(Br)c(O)c(CN(C)C)c12 [UMIFENOVIR] | – | – | Activity [4]: -1.8; Activity [5]: 102; Activity [6]: 48.7; Kd [7]: 0.081 µM; Activity [8]: 7.5; Activity [9]: 20.7; Activity [10]: 1.2 |
